Numbers after ± are expanded uncertainties.
Assay: xn = mol fraction of the nth substance listed
Conditions: 101 kPa, Liquid; for viscosity: Concentric cylinders viscometry; for mass density: Vibrating tube method

NCCNCCN [di(2-aminoethyl)amine] + O
Conditions	mass density [kg/m3]	viscosity [mPa·s]
293.15 K, x1 = 0.0095	1001.5 ± 1	1.31 ± 0.053
293.15 K, x1 = 0.0299	1004.2 ± 1	2.076 ± 0.084
293.15 K, x1 = 0.0565	1011.5 ± 1	4.009 ± 0.16
293.15 K, x1 = 0.0696	1014.5 ± 1	5.418 ± 0.22
293.15 K, x1 = 0.1043	1023.8 ± 1	11.63 ± 0.47
293.15 K, x1 = 0.125	1026.5 ± 1	17.94 ± 0.73
293.15 K, x1 = 0.1591	1030.7 ± 1	31.07 ± 1.3
293.15 K, x1 = 0.2076	1029.4 ± 1	50.68 ± 2
293.15 K, x1 = 0.2449	1027.5 ± 1	59.62 ± 2.4
293.15 K, x1 = 0.3099	1019.1 ± 1	59.42 ± 2.4
293.15 K, x1 = 0.3438	1014.1 ± 1	55.52 ± 2.2
293.15 K, x1 = 0.4112	1004.1 ± 1	43.08 ± 1.7
293.15 K, x1 = 0.4974	992.8 ± 1	30.13 ± 1.2
293.15 K, x1 = 0.6111	979 ± 1	19.46 ± 0.79
293.15 K, x1 = 0.6988	971.8 ± 1	15.12 ± 0.61
293.15 K, x1 = 0.8073	963.4 ± 1	10.61 ± 0.43
293.15 K, x1 = 0.8954	957.5 ± 1	8.515 ± 0.34
293.15 K, x1 = 1	951 ± 1	7.038 ± 0.28
303.15 K, x1 = 0.0095	998.6 ± 1	1.017 ± 0.042
303.15 K, x1 = 0.0299	1000.7 ± 1	1.557 ± 0.063
303.15 K, x1 = 0.0565	1007.1 ± 1	2.841 ± 0.12
303.15 K, x1 = 0.0696	1009.6 ± 1	3.736 ± 0.15
303.15 K, x1 = 0.1043	1017.1 ± 1	7.329 ± 0.3
303.15 K, x1 = 0.125	1019.8 ± 1	10.57 ± 0.43
303.15 K, x1 = 0.1591	1023 ± 1	16.94 ± 0.69
303.15 K, x1 = 0.2076	1021.4 ± 1	25.63 ± 1
303.15 K, x1 = 0.2449	1018.6 ± 1	29.47 ± 1.2
303.15 K, x1 = 0.3099	1010.2 ± 1	29.55 ± 1.2
303.15 K, x1 = 0.3438	1005.7 ± 1	27.97 ± 1.1
303.15 K, x1 = 0.4112	995 ± 1	22.7 ± 0.92
303.15 K, x1 = 0.4974	983.7 ± 1	16.77 ± 0.68
303.15 K, x1 = 0.6111	970.6 ± 1	11.54 ± 0.47
303.15 K, x1 = 0.6988	962.7 ± 1	9.116 ± 0.37
303.15 K, x1 = 0.8073	954.3 ± 1	6.899 ± 0.28
303.15 K, x1 = 0.8954	948.4 ± 1	5.713 ± 0.23
303.15 K, x1 = 1	942.3 ± 1	4.804 ± 0.19
313.15 K, x1 = 0.0095	994.9 ± 1	0.8263 ± 0.034
313.15 K, x1 = 0.0299	996.7 ± 1	1.223 ± 0.05
313.15 K, x1 = 0.0565	1002.2 ± 1	2.101 ± 0.085
313.15 K, x1 = 0.0696	1004.3 ± 1	2.684 ± 0.11
313.15 K, x1 = 0.1043	1010.7 ± 1	4.877 ± 0.2
313.15 K, x1 = 0.125	1012.9 ± 1	6.69 ± 0.27
313.15 K, x1 = 0.1591	1015.4 ± 1	10.13 ± 0.41
313.15 K, x1 = 0.2076	1013.2 ± 1	14.34 ± 0.58
313.15 K, x1 = 0.2449	1009.9 ± 1	16.2 ± 0.66
313.15 K, x1 = 0.3099	1001.5 ± 1	16.32 ± 0.66
313.15 K, x1 = 0.3438	997.1 ± 1	15.61 ± 0.63
313.15 K, x1 = 0.4112	986.4 ± 1	12.99 ± 0.53
313.15 K, x1 = 0.4974	975.1 ± 1	10.17 ± 0.41
313.15 K, x1 = 0.6111	962.1 ± 1	7.375 ± 0.3
313.15 K, x1 = 0.6988	954.2 ± 1	5.944 ± 0.24
313.15 K, x1 = 0.8073	947.3 ± 1	4.741 ± 0.19
313.15 K, x1 = 0.8954	939.8 ± 1	4.017 ± 0.16
313.15 K, x1 = 1	933.8 ± 1	3.4 ± 0.14
323.15 K, x1 = 0.0095	990.5 ± 1	0.6854 ± 0.028
323.15 K, x1 = 0.0299	991.7 ± 1	0.9871 ± 0.04
323.15 K, x1 = 0.0565	996.8 ± 1	1.615 ± 0.066
323.15 K, x1 = 0.0696	998.6 ± 1	2.012 ± 0.082
323.15 K, x1 = 0.1043	1004.2 ± 1	3.423 ± 0.14
323.15 K, x1 = 0.125	1005.7 ± 1	4.514 ± 0.18
323.15 K, x1 = 0.1591	1007.9 ± 1	6.505 ± 0.26
323.15 K, x1 = 0.2076	1004.8 ± 1	8.733 ± 0.35
323.15 K, x1 = 0.2449	1001.9 ± 1	9.728 ± 0.39
323.15 K, x1 = 0.3099	993.1 ± 1	9.836 ± 0.4
323.15 K, x1 = 0.3438	988.4 ± 1	9.492 ± 0.38
323.15 K, x1 = 0.4112	978 ± 1	8.14 ± 0.33
323.15 K, x1 = 0.4974	966.8 ± 1	6.622 ± 0.27
323.15 K, x1 = 0.6111	953.7 ± 1	5.032 ± 0.2
323.15 K, x1 = 0.6988	945.9 ± 1	4.175 ± 0.17
323.15 K, x1 = 0.8073	939.1 ± 1	3.445 ± 0.14
323.15 K, x1 = 0.8954	931.5 ± 1	2.976 ± 0.12
323.15 K, x1 = 1	925.5 ± 1	2.695 ± 0.11
333.15 K, x1 = 0.0095	985.5 ± 1	0.5792 ± 0.024
333.15 K, x1 = 0.0299	986.5 ± 1	0.8166 ± 0.033
333.15 K, x1 = 0.0565	991 ± 1	1.283 ± 0.052
333.15 K, x1 = 0.0696	992.4 ± 1	1.562 ± 0.064
333.15 K, x1 = 0.1043	997.2 ± 1	2.525 ± 0.1
333.15 K, x1 = 0.125	998.2 ± 1	3.206 ± 0.13
333.15 K, x1 = 0.1591	999.9 ± 1	4.43 ± 0.18
333.15 K, x1 = 0.2076	996.3 ± 1	5.698 ± 0.23
333.15 K, x1 = 0.2449	993.1 ± 1	6.271 ± 0.25
333.15 K, x1 = 0.3099	984.1 ± 1	6.366 ± 0.26
333.15 K, x1 = 0.3438	979.6 ± 1	6.191 ± 0.25
333.15 K, x1 = 0.4112	969.2 ± 1	5.44 ± 0.22
333.15 K, x1 = 0.4974	956.8 ± 1	4.572 ± 0.19
333.15 K, x1 = 0.6111	945.1 ± 1	3.62 ± 0.15
333.15 K, x1 = 0.6988	937.3 ± 1	3.083 ± 0.12
333.15 K, x1 = 0.8073	929.1 ± 1	2.618 ± 0.11
333.15 K, x1 = 0.8954	922.9 ± 1	2.301 ± 0.093
333.15 K, x1 = 1	917 ± 1	2.109 ± 0.086
343.15 K, x1 = 0.0095	980 ± 1	0.4978 ± 0.021
343.15 K, x1 = 0.0299	980.8 ± 1	0.6873 ± 0.028
343.15 K, x1 = 0.0565	984.7 ± 1	1.044 ± 0.043
343.15 K, x1 = 0.0696	985.8 ± 1	1.244 ± 0.051
343.15 K, x1 = 0.1043	990.1 ± 1	1.919 ± 0.078
343.15 K, x1 = 0.125	990.5 ± 1	2.376 ± 0.096
343.15 K, x1 = 0.1591	992.3 ± 1	3.174 ± 0.13
343.15 K, x1 = 0.2076	987.6 ± 1	3.938 ± 0.16
343.15 K, x1 = 0.2449	984.2 ± 1	4.293 ± 0.17
343.15 K, x1 = 0.3099	975.4 ± 1	4.372 ± 0.18
343.15 K, x1 = 0.3438	970.7 ± 1	4.277 ± 0.17
343.15 K, x1 = 0.4112	960.5 ± 1	3.846 ± 0.16
343.15 K, x1 = 0.4974	949.5 ± 1	3.308 ± 0.13
343.15 K, x1 = 0.6111	936.5 ± 1	2.721 ± 0.11
343.15 K, x1 = 0.6988	929.1 ± 1	2.366 ± 0.096
343.15 K, x1 = 0.8073	920.7 ± 1	2.067 ± 0.084
343.15 K, x1 = 0.8954	914.6 ± 1	1.833 ± 0.074
343.15 K, x1 = 1	908.9 ± 1	1.703 ± 0.069
353.15 K, x1 = 0.0095	973.8 ± 1	0.4312 ± 0.018
353.15 K, x1 = 0.0299	974.6 ± 1	0.5864 ± 0.024
353.15 K, x1 = 0.0565	978.1 ± 1	0.8677 ± 0.036
353.15 K, x1 = 0.0696	978.9 ± 1	1.017 ± 0.042
353.15 K, x1 = 0.1043	982.6 ± 1	1.507 ± 0.061
353.15 K, x1 = 0.125	982.3 ± 1	1.824 ± 0.074
353.15 K, x1 = 0.1591	982.9 ± 1	2.373 ± 0.096
353.15 K, x1 = 0.2076	978.5 ± 1	2.852 ± 0.12
353.15 K, x1 = 0.2449	975.1 ± 1	3.086 ± 0.12
353.15 K, x1 = 0.3099	966.3 ± 1	3.151 ± 0.13
353.15 K, x1 = 0.3438	961.7 ± 1	3.1 ± 0.13
353.15 K, x1 = 0.4112	951.7 ± 1	2.841 ± 0.12
353.15 K, x1 = 0.4974	940.8 ± 1	2.502 ± 0.1
353.15 K, x1 = 0.6111	927.8 ± 1	2.118 ± 0.086
353.15 K, x1 = 0.6988	920.4 ± 1	1.876 ± 0.076
353.15 K, x1 = 0.8073	912.2 ± 1	1.677 ± 0.068
353.15 K, x1 = 0.8954	906.1 ± 1	1.504 ± 0.061
353.15 K, x1 = 1	900.4 ± 1	1.409 ± 0.057
363.15 K, x1 = 0.0095	967.3 ± 1	0.3693 ± 0.016
363.15 K, x1 = 0.0299	967.7 ± 1	0.4995 ± 0.021
363.15 K, x1 = 0.0565	970.9 ± 1	0.7364 ± 0.03
363.15 K, x1 = 0.0696	971.7 ± 1	0.8452 ± 0.035
363.15 K, x1 = 0.1043	974.7 ± 1	1.213 ± 0.049
363.15 K, x1 = 0.125	974.2 ± 1	1.439 ± 0.058
363.15 K, x1 = 0.1591	974.2 ± 1	1.84 ± 0.075
363.15 K, x1 = 0.2076	969.5 ± 1	2.148 ± 0.087
363.15 K, x1 = 0.2449	966.1 ± 1	2.311 ± 0.094
363.15 K, x1 = 0.3099	957 ± 1	2.365 ± 0.096
363.15 K, x1 = 0.3438	952.6 ± 1	2.337 ± 0.095
363.15 K, x1 = 0.4112	942.7 ± 1	2.176 ± 0.088
363.15 K, x1 = 0.4974	931.9 ± 1	1.955 ± 0.079
363.15 K, x1 = 0.6111	919.1 ± 1	1.696 ± 0.069
363.15 K, x1 = 0.6988	911.8 ± 1	1.526 ± 0.062
363.15 K, x1 = 0.8073	903.6 ± 1	1.387 ± 0.056
363.15 K, x1 = 0.8954	897.5 ± 1	1.26 ± 0.051
363.15 K, x1 = 1	891.9 ± 1	1.19 ± 0.049
